Reference: ChEMBL document CHEMBL1201862, “PubChem BioAssay data set” (2004)
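In this assay, cells in 96-well plates receive the compound at five concentrations for 48 hours. Endpoints are linearly interpolated between the surrounding concentrations. Here, GI50 denotes the concentration required for 50% inhibition of growth.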 The source made the active and inactive calls. No stated cut-off is given here; in the data, active = GI50 up to about 1.1 µM and inactive = higher.

Key:
Experiment in all cases: inhibition of tumour cell growth, NCI panel, 48 h
786-0 = tested on: 786-0
A498 = tested on: A498
A549 = tested on: A549
ACHN = tested on: ACHN
CAKI-1 = tested on: CAKI-1
CCRF-CEM = tested on: CCRF-CEM
COLO 205 = tested on: COLO 205
DLD-1 = tested on: DLD-1
DMS-114 = tested on: DMS-114
DMS-273 = tested on: DMS-273
EKVX = tested on: EKVX
HCC 2998 = tested on: HCC 2998
HCT-116 = tested on: HCT-116
HCT-15 = tested on: HCT-15
HL-60 = tested on: HL-60
HOP-18 = tested on: HOP-18
HOP-62 = tested on: HOP-62
HOP-92 = tested on: HOP-92
HT-29 = tested on: HT-29
IGROV-1 = tested on: IGROV-1
K562 = tested on: K562
KM-20L2 = tested on: KM-20L2
KM12 = tested on: KM12
LXFL 529 = tested on: LXFL 529
M14 = tested on: M14
M19-MEL = tested on: M19-MEL
MOLT-4 = tested on: MOLT-4
Malme-3M = tested on: Malme-3M
NCI-H226 = tested on: NCI-H226
NCI-H23 = tested on: NCI-H23
NCI-H460 = tested on: NCI-H460
NCI-H522 = tested on: NCI-H522
OVCAR-3 = tested on: OVCAR-3
OVCAR-4 = tested on: OVCAR-4
OVCAR-5 = tested on: OVCAR-5
OVCAR-8 = tested on: OVCAR-8
RPMI-8226 = tested on: RPMI-8226
SF-268 = tested on: SF-268
SF-295 = tested on: SF-295
SF-539 = tested on: SF-539
SK-MEL-28 = tested on: SK-MEL-28
SK-MEL-5 = tested on: SK-MEL-5
SK-OV-3 = tested on: SK-OV-3
SN12C = tested on: SN12C
SNB-19 = tested on: SNB-19
SNB-75 = tested on: SNB-75
SNB-78 = tested on: SNB-78
SW-620 = tested on: SW-620
TK-10 = tested on: TK-10
U-251 = tested on: U-251
UACC-257 = tested on: UACC-257
UACC-62 = tested on: UACC-62
UO-31 = tested on: UO-31
BT-549 = tested on: BT-549
DU-145 = tested on: DU-145
Hs-578T = tested on: Hs-578T
NCI/ADR-RES = tested on: NCI/ADR-RES
PC-3 = tested on: PC-3
RXF 393 = tested on: RXF 393
SR = tested on: SR
T47D = tested on: T47D
XF498 = tested on: XF498
LOX IMVI = tested on: LOX IMVI
SK-MEL-2 = tested on: SK-MEL-2

With `O=C(/C=C\c1cccc2ccccc12)c1ccc(Br)cc1` the GI50 (786-0) was 19.2 µM (inactive), the GI50 (A498) was > 100 µM (inactive) and the GI50 (A549) was > 100 µM (inactive). The GI50 (ACHN) was 17.4 µM (inactive), the GI50 (CAKI-1) was 33 µM (inactive) and the GI50 (CCRF-CEM) was 20.9 µM (inactive). For the same compound, the GI50 (COLO 205) was 31.1 µM (inactive), the GI50 (DLD-1) was 20.5 µM (inactive) and the GI50 (DMS-114) was 15 µM (inactive). For the same compound, the GI50 (DMS-273) was 16.7 µM (inactive), the GI50 (EKVX) was 24 µM (inactive) and the GI50 (HCC 2998) was 17.5 µM (inactive). The GI50 (HCT-116) was 16.7 µM (inactive), the GI50 (HCT-15) was 17.7 µM and the GI50 (HL-60) was 15 µM (inactive). The GI50 (HOP-18) was 19.2 µM (inactive), the GI50 (HOP-62) was > 100 µM (inactive) and the GI50 (HOP-92) was 36.5 µM (inactive). For the same compound, the GI50 (HT-29) was 18.2 µM (inactive), the GI50 (IGROV-1) was 23.6 µM (inactive) and the GI50 (K562) was 18.1 µM (inactive). For the same compound, the GI50 (KM-20L2) was 16.3 µM (inactive), the GI50 (KM12) was 15.1 µM (inactive) and the GI50 (LXFL 529) was 18.1 µM (inactive). For the same compound, the GI50 (M14) was 18.1 µM (inactive), the GI50 (M19-MEL) was 19 µM (inactive) and the GI50 (MOLT-4) was 31 µM (inactive). The GI50 (Malme-3M) was 31.3 µM (inactive), the GI50 (NCI-H226) was 50.7 µM (inactive) and the GI50 (NCI-H23) was 34 µM (inactive). The GI50 (NCI-H460) was 18.4 µM (inactive), the GI50 (NCI-H522) was 21 µM (inactive) and the GI50 (OVCAR-3) was 18.4 µM (inactive). For the same compound, the GI50 (OVCAR-4) was 16.4 µM (inactive), the GI50 (OVCAR-5) was 18 µM (inactive) and the GI50 (OVCAR-8) was 17.5 µM (inactive). For the same compound, the GI50 (RPMI-8226) was 14.8 µM (inactive), the GI50 (SF-268) was 23.7 µM (inactive) and the GI50 (SF-295) was 22.4 µM (inactive). The GI50 (SF-539) was 22.3 µM (inactive), the GI50 (SK-MEL-28) was 12.1 µM (inactive) and the GI50 (SK-MEL-5) was 19.7 µM (inactive). For the same compound, the GI50 (SK-OV-3) was 30.7 µM (inactive), the GI50 (SN12C) was 34.8 µM (inactive) and the GI50 (SNB-19) was 25.7 µM (inactive). The GI50 (SNB-75) was 21.7 µM (inactive), the GI50 (SNB-78) was 20.6 µM (inactive) and the GI50 (SW-620) was 12.1 µM (inactive). The GI50 (TK-10) was 51.3 µM (inactive), the GI50 (U-251) was 16.1 µM (inactive) and the GI50 (UACC-257) was 22.3 µM (inactive). The GI50 (UACC-62) was 15.2 µM (inactive) and the GI50 (UO-31) was 19.1 µM (inactive).
For `CCc1ccc(NCc2cc(OC)c(OC)c(OC)c2)cc1`, the GI50 (ACHN) was 2.24 µM (inactive), the GI50 (BT-549) was < 0.01 µM (active) and the GI50 (CCRF-CEM) was 0.284 µM (active). The GI50 (DLD-1) was 0.492 µM (active), the GI50 (DMS-114) was 0.457 µM (active) and the GI50 (DU-145) was 0.716 µM (active). For the same compound, the GI50 (EKVX) was 4.2 µM (inactive), the GI50 (HCT-116) was 0.0998 µM (active) and the GI50 (HCT-15) was 0.164 µM. The GI50 (HL-60) was 0.056 µM (active), the GI50 (HOP-62) was 0.532 µM (active) and the GI50 (HOP-92) was 1.24 µM (inactive). The GI50 (HT-29) was 0.176 µM (active), the GI50 (Hs-578T) was 0.261 µM (active) and the GI50 (K562) was 0.0845 µM (active). For the same compound, the GI50 (KM-20L2) was 0.267 µM (active), the GI50 (KM12) was 0.0738 µM (active) and the GI50 (M19-MEL) was 0.413 µM (active). The GI50 (MOLT-4) was 0.29 µM (active), the GI50 (Malme-3M) was 0.232 µM (active) and the GI50 (NCI-H226) was 3.3 µM (inactive). For the same compound, the GI50 (NCI-H23) was 0.611 µM (active), the GI50 (NCI-H522) was 0.186 µM (active) and the GI50 (NCI/ADR-RES) was 0.0611 µM (active). For the same compound, the GI50 (OVCAR-3) was 0.211 µM (active), the GI50 (OVCAR-4) was 18.2 µM (inactive) and the GI50 (OVCAR-5) was 3.02 µM (inactive). The GI50 (PC-3) was 0.305 µM (active), the GI50 (RPMI-8226) was 0.367 µM (active) and the GI50 (RXF 393) was 0.211 µM (active). For the same compound, the GI50 (SF-295) was 0.197 µM (active), the GI50 (SNB-19) was 0.522 µM (active) and the GI50 (SR) was < 0.0282 µM (active). For the same compound, the GI50 (T47D) was 0.302 µM (active) and the GI50 (XF498) was 0.933 µM (active).
With `CC1=C(SC#N)S(=O)(=O)N(c2ccccc2)C(C)=C1SC#N` the GI50 (786-0) was 49.4 µM (inactive), the GI50 (A498) was 22.6 µM (inactive) and the GI50 (A549) was 40.7 µM (inactive). The GI50 (ACHN) was 44 µM (inactive), the GI50 (CAKI-1) was 45.2 µM (inactive) and the GI50 (CCRF-CEM) was 17.5 µM (inactive). The GI50 (DLD-1) was 33.3 µM (inactive), the GI50 (DMS-114) was 5.92 µM (inactive) and the GI50 (DMS-273) was 50.5 µM (inactive). For the same compound, the GI50 (HCC 2998) was > 100 µM (inactive), the GI50 (HCT-116) was 3.27 µM (inactive) and the GI50 (HCT-15) was 46 µM. The GI50 (HL-60) was 29 µM (inactive), the GI50 (HOP-62) was > 10 µM (inactive) and the GI50 (HOP-92) was 3.63 µM (inactive). The GI50 (HT-29) was > 100 µM (inactive), the GI50 (IGROV-1) was 6.56 µM (inactive) and the GI50 (K562) was 21 µM (inactive). The GI50 (KM12) was 60.4 µM (inactive), the GI50 (LOX IMVI) was 12.9 µM (inactive) and the GI50 (LXFL 529) was 22.4 µM (inactive). For the same compound, the GI50 (M14) was > 10 µM (inactive), the GI50 (M19-MEL) was 29.5 µM (inactive) and the GI50 (MOLT-4) was 20 µM (inactive). For the same compound, the GI50 (Malme-3M) was > 100 µM (inactive), the GI50 (NCI-H226) was 36.2 µM (inactive) and the GI50 (NCI-H23) was 48.2 µM (inactive). The GI50 (NCI-H460) was 32.8 µM (inactive), the GI50 (NCI-H522) was 18 µM (inactive) and the GI50 (OVCAR-3) was > 10 µM (inactive). The GI50 (OVCAR-4) was 33.3 µM (inactive), the GI50 (OVCAR-5) was 39.4 µM (inactive) and the GI50 (OVCAR-8) was 15.1 µM (inactive). The GI50 (RPMI-8226) was 28.5 µM (inactive), the GI50 (RXF 393) was 21.8 µM (inactive) and the GI50 (SF-268) was 69.2 µM (inactive). The GI50 (SF-295) was 22.6 µM (inactive), the GI50 (SF-539) was 43.3 µM (inactive) and the GI50 (SK-MEL-28) was 61.9 µM (inactive). The GI50 (SK-MEL-2) was 26.7 µM (inactive), the GI50 (SK-MEL-5) was 42 µM (inactive) and the GI50 (SK-OV-3) was 38.2 µM (inactive). For the same compound, the GI50 (SN12C) was 56.6 µM (inactive), the GI50 (SNB-19) was 25.1 µM (inactive) and the GI50 (SNB-75) was 27 µM (inactive). For the same compound, the GI50 (SNB-78) was 78.3 µM (inactive), the GI50 (SR) was 24.4 µM (inactive) and the GI50 (SW-620) was 41.8 µM (inactive). The GI50 (TK-10) was > 100 µM (inactive), the GI50 (U-251) was 16.9 µM (inactive) and the GI50 (UACC-257) was 32 µM (inactive). For the same compound, the GI50 (UACC-62) was 30.1 µM (inactive), the GI50 (UO-31) was 24.4 µM (inactive) and the GI50 (XF498) was 16.8 µM (inactive).
